The source of these data is patent publication US8791156B2, “Polyacetylene compound, an extract containing the same and application thereof” (priority 2011, dated 2014).

Where two headings read alike, the source gives them in different places. A value given as a limit tells only on which side of the number the result lay.

This test relates to mouse macrophage (RAW 264.7 cell). In words: Inhibition of NO production (nitrite by Greiss reaction) in LPS-treated mouse macrophages. Type of test: cell-based. The settings on record: for IC50: Mus musculus. The source says: This embodiment uses an analytical method to induce the macrophage of an inflaming mouse, with combination of Greiss reaction, to measure nitrites so as to indirectly measure the output of nitrogen monoxide (NO). As NO is a significant factor in the inflaming reaction, the output of NO can be used to evaluate the degree of inflaming reaction.
In brief, culture mouse macrophage (RAW 264.7 cell) pre-cultured in a 75 cm^2 culture dish in a 96 well plate at a density of 2×10^5 cells/well. The culture solution used is DMEM with 10% FBS, 100 units/mL penicillin and 100 μg/mL streptomycin. The culturing environment is 37° C. and 5% CO2 cell incubator. Let the normally attaching cells pass or not pass the LPS (1 μg/mL) processing with addition or no addition of the compounds obtained from Embodiment II. Then, use Greiss reaction to measure the concentration of nitrites in the upper clarified liquid of the culture solution after culturing the cells.
The experimental results are shown in FIG. 3, wherein, the ability of each compound to inhibit production of NO is shown through the method of IC50. IC50 represents 50% of the inhibiting concentration, i.e., […]. From the data in the figure, it is known that the compounds obtained from Embodiment II all manifest an effect of inhibiting production of NO, i.e., an anti-inflammation effect.

[1] abbreviates: RAW 264.7 cells, LPS 1 μg/mL, FIG. 3.

As to `COc1cc(C)c(OC)c2c1OCO2` [Compound b, 1,4-dimethoxy-2,3-methylenedioxy-5-methylbenzene], the IC50 is 20 to 35 mg/L (RAW264.7, RAW 264.7 cells, LPS 1 μg/mL, nitrites by Greiss reaction, FIG. 3, printed in brackets as 'about', read-out: IC50 of inhibiting production of NO (approximate range)) and greater than 20 mg/L (RAW264.7, RAW 264.7 cells, LPS 1 μg/mL, nitrites by Greiss reaction, FIG. 3, read-out: IC50 of inhibiting production of NO).

Take `C=C(C)C#Cc1c(C)c2c(c(OC)c1OC)OCO2` [Compound h, Antrocamphin C]: the “anti-inflammation ability (inhibiting production of NO), in words” value under setting [1] was “excellent anti-inflammation ability”.

Regarding `C=C(CC[C@@H](C(=O)O)[C@H]1CC[C@@]2(C)C3=CC[C@H]4C(C)(C)[C@@H](O)CC[C@]4(C)C3=CC[C@]12C)C(C)C` [Compound m, Dehydroeburicoic acid], the IC50 is greater than 20 mg/L (RAW264.7, read-out: IC50 of inhibiting production of NO) and 20 to 35 mg/L (RAW264.7, read-out: IC50 of inhibiting production of NO (approximate range)).

For the molecule `C=C(C)C#Cc1c(OC)cc(OC)c(OC)c1C` [Compound d, Antrocamphin A], the “anti-inflammation ability (inhibiting production of NO), in words” value under setting [1] is “excellent anti-inflammation ability”.

The term IC50 denotes the point on the concentration scale where inhibition reaches its midpoint.
